From publication PMC10877733, “Discovery and Characterization of VU0542270, the First Selective Inhibitor of Vascular Kir6.1/SUR2B KATP Channels” (Molecular Pharmacology, 2024)
Entries after “also recorded” stand apart in the source; their conditions may differ.

Key:
[1] = Intrinsic clearance in liver microsomes, mouse; format: in vitro ADME
Description: The in vitro intrinsic clearance (CLint) of VU0542270 was investigated in commercially obtained hepatic microsomes from rat, mouse, and human donors using the substrate depletion (i.e., loss-of-parent versus time, or t1/2 method) approach with analyte detection via LC-MS/MS. For each species, mean per cent parent remaining values at each time point were calculated from replicates raw data (analyte:IS peak area ratios) and used to determine in vitro t1/2 and CLint.
Experiments were carried out using a robot-assisted liquid handling system (TECAN model Evo 200). VU0542270 was incubated (1 µM final concentration) in buffer (100 mM potassium phosphate, pH 7.4, with 3 mM MgCl2) containing hepatic microsomes (0.5 mg/mL final concentration) from multiple species, discretely, at 37°C under constant orbital shaking. After 5 minutes (preincubation), reactions were initiated by the addition of NADPH (1 mM final concentration). At selected time intervals (0, 3, 7, 15, 25, and 45 minutes) post addition of NADPH, aliquots (50 µL) were taken and placed into a 96-shallow-well plate containing ice-cold acetonitrile (150 µL) with carbamazepine (IS, 50 nM). The plates were then centrifuged (3000 rcf at 4°C) for 10 minutes. […]
Predicted hepatic clearance (CLhep) was calculated using the following equation: [drawing 4] […]

[2] = biological target: T1, Kir3.1/Kir3.4 (Homo sapiens, UniProt P48544+P48549); assay: Thallium flux selectivity assay Kir3.1/Kir3.4; format: cell-based
T1 construct: expressed in transfected cells
T1 sequence (P48549 1-501): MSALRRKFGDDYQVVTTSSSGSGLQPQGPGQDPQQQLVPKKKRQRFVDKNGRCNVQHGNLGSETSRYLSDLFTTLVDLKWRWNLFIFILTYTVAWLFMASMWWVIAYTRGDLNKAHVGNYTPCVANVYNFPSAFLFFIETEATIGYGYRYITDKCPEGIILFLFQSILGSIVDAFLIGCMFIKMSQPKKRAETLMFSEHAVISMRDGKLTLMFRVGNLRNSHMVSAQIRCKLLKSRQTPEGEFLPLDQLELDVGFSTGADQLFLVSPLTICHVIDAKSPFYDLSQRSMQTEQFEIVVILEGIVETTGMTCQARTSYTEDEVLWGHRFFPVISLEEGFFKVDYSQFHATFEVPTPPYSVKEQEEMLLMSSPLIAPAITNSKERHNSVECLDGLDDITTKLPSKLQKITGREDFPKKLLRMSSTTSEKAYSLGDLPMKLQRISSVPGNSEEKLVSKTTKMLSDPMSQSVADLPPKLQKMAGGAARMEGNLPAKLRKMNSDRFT
T1 sequence (P48544 1-419): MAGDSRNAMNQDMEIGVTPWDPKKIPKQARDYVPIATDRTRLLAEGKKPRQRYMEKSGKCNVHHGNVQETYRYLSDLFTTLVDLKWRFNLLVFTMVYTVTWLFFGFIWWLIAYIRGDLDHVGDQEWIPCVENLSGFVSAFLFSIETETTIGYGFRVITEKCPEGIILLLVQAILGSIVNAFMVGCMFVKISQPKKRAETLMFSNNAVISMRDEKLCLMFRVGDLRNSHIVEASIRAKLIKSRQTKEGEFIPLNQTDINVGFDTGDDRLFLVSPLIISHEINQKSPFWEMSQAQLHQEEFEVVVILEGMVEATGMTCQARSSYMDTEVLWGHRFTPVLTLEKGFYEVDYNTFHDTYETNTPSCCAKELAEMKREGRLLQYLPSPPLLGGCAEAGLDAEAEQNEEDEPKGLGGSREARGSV
Description: Quantitative thallium flux assays of Kir6.1/SUR2B activity were performed essentially as described previously for Kir6.2/SUR1 ([Raphemot et al., 2014]; [Kharade et al., 2019]). Stable T-Rex-HEK293-Kir6.1/SUR2B cells or transiently transfected HEK293T cells were plated in polyamine-coated, clear-bottomed, black-walled 384-well plates and were cultured (37°C/5% CO2) overnight in Dulbecco’s modified Eagle’s medium (Gibco, Carlsbad, CA, 11995-065) containing 10% FBS (2 mM Penicillin-Streptomycin). The following day, cells were washed with assay buffer (i.e., Hanks’ balanced salt solution/20 mM HEPES) and loaded for 1 hour with thallium sensor dye Brilliant Thallium (Ion Bioscience, San Marcos, TX) at room temperature. Dye-loaded cells were washed with assay buffer and transferred to a Panoptic Kinetic Imaging Plate Reader (Wavefront Bioscience, Franklin, TN). Control and test compound treatments were for 4 minutes prior to adding 0.5 mM chloride-free thallium stimulus buffer (Ion Bioscience) to initiate thallium flux. […] Selectivity assays against other Kir channels were performed essentially as described previously ([Kharade et al., 2018]; [McClenahan et al., 2022]).

[3] = system: isolated mouse ductus arteriosus vessels; assay: Pressure myography of isolated ductus arteriosus vessels; details: term gestation mouse DA
Description: CD-1 mice were maintained at Vanderbilt University Medical Center in accordance with protocols approved by the Institutional Animal Care and Use Committee. Timed matings were performed to produce offspring at specific stages of development. The presence of a vaginal plug was designated as embryonic day 1.
Term-gestation (embryonic day 19) fetal mouse DAs were isolated and mounted on glass pipet tips in microvessel perfusion chambers as previously reported ([Hooper et al., 2016]). Deoxygenated Krebs buffer was warmed to 37°C and circulated throughout the chamber. Vessels were pressurized in a stepwise manner to physiologic neonatal mouse mean arterial pressure (20 mmHg) and then challenged with 50 mM KCl to test reactivity. […] For dose-response studies, vessels were first dilated by circulating Krebs buffer bubbled with 95% nitrogen, 5% CO2 to mimic the hypoxic conditions of the womb. […] Following each dose, lumen diameters were allowed to plateau (approximately 20 minutes) before the next dose was added. Continuous lumen diameter measurements were recorded using a digital image capture system (IonOptix). An N of >6 vessels from at least three different litters was used for each experimental condition. Changes in lumen diameter are represented as the percent change in diameter compared with the baseline lumen diameter of vessels prior to drug exposure. […] Values represent mean ± S.D.

For `Cc1nc(-c2cccs2)sc1CNC(=O)Nc1cccs1` [VU0542270], the “Predicted CLhep,u (mouse)” value ([1]; corrected to plasma unbound fraction) was 27 mL/min per kg, the “Predicted CLhep (mouse)” value ([1]; from microsomal CLint) was 88 mL/min per kg and the IC50 [2] was greater than 30 µM. For the same compound, the “ductus arteriosus vessel constriction” value ([3]; increasing concentrations, compound alone) was “induced ductus arteriosus constriction in a dose-dependent manner; also recorded: constricted in a concentration-dependent manner” and the “ductus arteriosus vessel constriction in the presence of pinacidil” value ([3]; with 10 µM pinacidil) was “substantially blunted vasoconstrictive effects”.
